According to patent US20190209641A1, “METHODS FOR PREVENTING OR TREATING METABOLIC SYNDROME” (Cornell University, priority 2009, published 2019):
Where “and” joins values, the source holds several entries; their conditions need not be identical. Equal entries are not always repeated. Non-standard residues stand in square brackets, D forms with d. No end group written: not given here.

Legend:
DIO C57BL/6 mice = assay: Diet-induced obesity (DIO) in C57BL/6 mice, Example 3; format: in vivo, mouse; conditions: for Glucose Tolerance (IPGTT), Week 5: DIO vehicle 1719.7 ± 56.8, chow vehicle 1213.6 ± 54.1; for glucose tolerance in the obese mouse model (in words): IPGTT, 1 g/kg D-glucose i.p.; for abdominal fat index / subcutaneous fat index: after 14 weeks of treatment
Description: To analyze the pharmacodynamic effects of SS-31 and SS-20 against diet-induced obesity (D10) in C57BL/6 mice, the test subjects were fed either a normal diet or a high-fat diet having the composition shown in Table 9.
After several days of acclimation, animals were weighted and randomly assigned to the following treatment groups.
Starting from the first day of treatment, animals in Groups B to I were switched to HFD. During the entire treatment period, the following activities were performed on specific days.
Dose Preparation & Administration. The treatment was given once a day (5 days a week) with injection site alternated. The concentration of SS-31 and SS-20 dosed at 3 mg/kg was 0.6 mg/ml and that of 10 mg/kg was 2 mg/ml. The treatment volume (0.05 mUl0 g for s.c. and 0.2 ml/10 g for p.o.) for each test animal was adjusted according to its body weight taken on the beginning of each week.
Blood Sample Collection. Blood samples were collected by tail snip according to the Medicilon/MPI Preclinical Research (Shanghai) LLC SOP on Blood Collection Techniques. […] Collected blood samples were set at room temperature for 1 hour to allow clotting before being centrifuged at 2,000×g for 10 min. The supernatant were collected and re-centrifuged at 2,000×g for another 10 min. to generate the serum. Part of the serum samples were used for total cholesterol (TC) analysis immediately. The rest were stored at −20° C. until being used in insulin analysis.
Serum Insulin, Triglyceride (TG) & Total Cholesterol (TC). Serum insulin levels were measured using Rat/Mouse Insulin ELISA Kit from Millipore Corporation (Catalog # EZRMI-13K, St. Charles, Mo., USA). Serum TG levels were measured by automatic biochemical analyzer. FIG. 5A is a chart illustrating the effects of peptide treatment on triglycerides in a murine model of diet-induced obesity after 14 weeks of treatment. FIG. 5B is a chart illustrating the effects of peptide treatment on total cholesterol in a murine model of diet-induced obesity after 14 weeks of treatment. FIG. 5C is a chart illustrating the effects of peptide treatment on HDL cholesterol in a murine model of diet-induced obesity after 14 weeks of treatment.
IPGTT. IPGTT was performed according to the Medicilon-MPI Preclinical Research (Shanghai) LLC SOP on Intraperitoneal (IP) Glucose Tolerance Test with slight modifications. Mice were fast overnight before the baseline glucose levels assessed in the next morning. After that, an IP injection of 1 g/kg D-glucose was given to each animal and the blood glucose levels were then measured on 15, 30, 60 and 120 minutes post the IP injection.

[1] = tested on: STZ-induced diabetic Sprague-Dawley rats; assay: STZ diabetes model in male Sprague-Dawley rats, Example 4; format: in vivo, rat; conditions: 10 mg/kg s.c. q.d. 5 days a week, after peptide treatment for 2 weeks or 4 weeks, vs. STZ/Saline group
Description: The objective of this study was to explore the protective effect of SS-31 or SS-20 against Streptozotocin (STZ) induced diabetic complications and metabolic syndrome in male Sprague-Dawley rats.
Rat models of type 1 diabetes were established by administration of high-dose STZ (30 mg/kg). Rats of the same batch fed with regular chow are used as normal control. The study groups included: Group A: STZ+SS-31 10 mg/kg s.c. q.d. (M.-F.), n=11; Group B: STZ+SS-20 10 mg/kg s.c. q.d. (M.-F.), n=11; Group C: STZ+vehicle s.c. q.d. (M.-F.), n=10; Group D: NRC +vehicle s.c. q.d. (M.-F.), n=10.
The compounds were dissolved in saline. The treatment was given once a day (5 days a week) with injection site to be alternated. The concentration of SS-31 and SS-20 dosed at 10mg/kg is 5mg/ml. The treatment volume (0.2 ml/100 g for s.c.) for each test animal was adjusted according to its body weight taken on the beginning of each week. STZ was dissolved in 0.1 M citrate buffer (pH4.5) to concentration of 20 mg/mL. STZ was injected intraperitoneally.

HFD/STZ rats = assay: HFD/STZ rat model of metabolic syndrome, 10-week peptide treatment, Example 2; format: in vivo; conditions: for TG level before peptide treatment: baseline; for change in blood glucose during 10-week peptide treatment / change in body weight during 10-week peptide treatment: SS-31 10, 3, 1 mg/kg or SS-20 10, 3 mg/kg s.c. once daily 5 days a week
Description: This study was initiated to investigate the effects of SS-31 and SS-20 in a model of metabolic syndrome over a 10 week period. Rats were fed with a high-fat diet for 6 weeks and then administered a single dose of STZ (30 mg/kg). The rats were maintained on a HFD until 14 weeks after STZ administration. Control rats fed normal rat chow (NRC) for 6 weeks were then administered citrate buffer without STZ. After 5 months, diabetic rats were treated with SS-31 (10 mg/kg, 3 mg/kg, 1 mg/kg s.c. once daily), SS-20 (10 mg/kg, 3 mg/kg s.c. once daily) or vehicle (saline) 5 days a week for 10 weeks. The study groups were as follows:
Group A: HFD/STZ+SS-31 10 mg/kg s.c. q.d. (Mon-Fri.), n=12;
Group B: HFD/STZ+SS-31 3 mg/kg s.c. q.d. (Mon-Fri.), n=12;
Group C: HFD/STZ+SS-31 1 mg/kg s.c. q.d. (Mon-Fri.), n=10;
Group D: HFD/STZ+SS-20 10 mg/kg s.c. q.d. (Mon-Fri.), n=10;
Group E: HFD/STZ+SS-20 3 mg/kg s.c. q.d. (Mon-Fri.), n=10;
Group F: HFD/STZ+vehicle s.c. q.d. (Mon-Fri.), n=10;
Group G: NRC +vehicle s.c. q.d. (Mon-Fri.), n=10.
HFD feeding for 6 weeks produced obvious body weight gain (452.9±3.8g in HFD group vs. 425.5±7.1 g, P<0.01) and STZ administration increased blood glucose (26.5±0.5 mmol/L in HFD/STZ rats vs. 9.8±0.5 mmol/L in NRC rats, P<0.001) and hyperlipidemia (P<0.01), indicating a metabolic syndrome-like disorder in these test subjects.

HFD/STZ SD rats = assay: Rat model of metabolic syndrome (HFD + low-dose STZ), Example 1; format: in vivo; conditions: for body weight increase over the 10-week treatment period: 10 mg/kg s.c. q.d. 5 days a week, by the end of 10th week, HFD/STZ control 3.6%, NRC 23.3%; for effect on blood glucose: 10 mg/kg s.c., week 4 post peptide treatment, vs. HFD/STZ vehicle rats
Description: The effects of aromatic-cationic peptides in treating a subject suffering from metabolic syndrome were investigated in a Sprague-Dawley rat model over […]. The example describes the results of such experiments.
In vivo models. A rat model of metabolic syndrome was established by combination of 6-week HFD and low-dose STZ (40 mg/kg) injection in SD rats. Rats of the same batch fed with normal chow (NRC) were used as a control.
Study groups. Group A: NRC+PBS s.c. q.d. (Mon-Fri)*, n=5; Group B: HFD +STZ+PBS s.c. q.d. (Mon-Fri), n=8; Group C:HFD+STZ+SS-31 10 mg/kg s.c. q.d. (Mon-Fri), n=8; Group D: HFD+STZ+SS-20 10 mg/kg s.c. q.d. (Mon-Fri), n=8.
Preparation and administration of test compounds. SS-31 or SS-20 was dissolved in 0.01 M PBS (pH 7.0). The 10-week treatment was given once a day (5 days a week) with s.c. injection site alternated. The concentration of SS-31 and SS-20 was 5.0 mg/mL. The injection volume (0.2 mL/100 g) for each test animal was adjusted according to body weight taken on the beginning of each week. STZ was dissolved in 0.1 M citrate buffer (pH 4.5) to concentration of 20 mg/mL. STZ is injected intraperitoneally.
Blood glucose. Blood glucose was tested by ACCU-CHEK® Advantage™ blood glucose meter and test strips from Roche diagnostics GmbH (Mannheim, Germany).
Blood sample handling. Blood samples were collected by tail snip. […] Collected blood samples were set at room temperature for 30 min to allow clotting before being centrifuged at 1,200×g for 10 min. The supernatant were collected and re-centrifuged at 1,200×g for another 5 min to generate the serum. Serum samples were aliquotted and stored at −20° C. until being used in analysis.
Statistics: Statistic analysis oft-test and one-way ANOVA was performed by SPSS (Statistical Package for Social Science) analysis software.

[2] = 10 mg/kg s.c. q.d. 5 days a week

Compound | Glucose Tolerance (IPGTT), Week 5 (DIO C57BL/6 mice; 2 mg/kg p.o.) | TG level [1] | TG level before peptide treatment (HFD/STZ rats; 3 mg/kg group) | TG level after 10 weeks' peptide treatment (HFD/STZ rats; 3 mg/kg s.c. q.d. 5 days a week) | TG level before peptide treatment (HFD/STZ rats; 10 mg/kg group) | TG level after 10 weeks' peptide treatment (HFD/STZ rats; [2]) | change in blood glucose during 10-week peptide treatment (HFD/STZ rats) | change in body weight during 10-week peptide treatment (HFD/STZ rats) | body weight increase over the 10-week treatment period (HFD/STZ SD rats) | effect on blood glucose (HFD/STZ SD rats) | Glucose Tolerance (IPGTT), Week 5 (DIO C57BL/6 mice; 3 mg/kg s.c.) | Glucose Tolerance (IPGTT), Week 5 (DIO C57BL/6 mice; 10 mg/kg s.c.) | glucose tolerance in the obese mouse model (in words) (DIO C57BL/6 mice) | abdominal fat index (DIO C57BL/6 mice) | subcutaneous fat index (DIO C57BL/6 mice) | TG level before peptide treatment (HFD/STZ rats; 3 mg/kg group, 3 mg/kg) | TG level after 10 weeks' peptide treatment (HFD/STZ rats; 3 mg/kg s.c. q.d. 5 days a week, 3 mg/kg)
CN(CCOc1ccc(CC2SC(=O)NC2=O)cc1)c1ccccn1 (centres unmarked) [Rosi, Rosiglitazone, reference compound] | 1487.5 ± 44.2 | – | – | – | – | – | – | – | – | – | – | – | – | – | – | – | –
D-Arg-2′,6′-Dmt-Lys-Phe-NH2 [SS-31] | – | increased less than STZ/Saline group | 4.17 ± 0.88 mM | 2.46 ± 0.52 mM | 3.77 ± 0.38 mM | 1.75 ± 0.33 mM | no obvious changes | no obvious changes | 16.3% | down-regulation effect on blood glucose | 1460.6 ± 64.1 | 1584.3 ± 78.3 | significantly improve glucose tolerance | capable of reducing | capable of reducing | – | –
F[dR]FK-NH2 [SS-20] | – | increased less than STZ/Saline group | – | – | 4.17 ± 1.02 mM | 1.97 ± 0.46 mM | no obvious changes | no obvious changes | 9.0% | down-regulation effect on blood glucose | 1534.1 ± 53.3 | 1494.5 ± 54.4 | significantly improve glucose tolerance | capable of reducing | capable of reducing | 4.66 ± 1.40 mM and 3.90 ± 0.65 mM | 2.43 ± 0.47 mM and 3.70 ± 1.16 mM
